Laboratory results from publication PMC10115881, “Disrupting the α-synuclein-ESCRT interaction with a peptide inhibitor mitigates neurodegeneration in preclinical models of Parkinson’s disease” (Nature Communications, 2023).

Columns and labels:
A53T a-syn or EV rats = assay: Striatal catecholamines by HPLC; assay type: in vivo, rat; settings: A53T high titer
Procedure: Animals were secured in a stereotactic frame under isoflurane/oxygen anesthesia and ketoprofen (5 mg/kg) analgesia. The surgical site was shaved and sterilized with iodine/betadine prior to making a 2 cm incision along the midline. The scalp was exposed and a unilateral injection targeting the SN was performed at coordinates AP −5.2 mm, ML −2 mm and DV −7.5 mm with respect to the bregma as a point of reference. For each animal, a total volume of 2 μl of virus was injected at a rate of 0.5 μl/min using a microinjection pump and 10 μl Hamilton syringe with a 26-gauge needle. For A53T groups, 1 μl (low dose) or 1.34 μl (high dose) of AAV1/2-A53T a-syn (5.1 × 10^12 genomic particles/ml), 0.14 μl of AAV1/2-PDpep1.3-GFP or Scramble1.3-GFP (5.1 × 10^12 genomic particles/ml) and 0.86 μl or 0.52 μl of sterile PBS was injected; for EV groups, 1 μl (low dose) or 1.34 μl (high dose) of AAV1/2-EV (5.1 × 10^12 genomic particles/ml) replaced AAV1/2-A53T. […]
HPLC was performed as described. […] Catecholamines were determined from the supernatant. Values of catecholamines are expressed as ng analyte/mg total protein.

cathepsin D = assay: Cathepsin D fluorescence in rat cortical neurons; assay type: cell-based; settings: A53T a-syn
Source text: (§1) Pregnant rats (E17) of the Sprague-Dawley strain were purchased from Envigo. Embryos were surgically removed from the mothers and cortices dissected in Hanks Balanced salt solution (Gibco). The meninges were removed, and cells were dissociated using a papain dissociation system (Worthington) before being resuspended in Neurobasal medium A supplemented with antibiotic-antimycotic solution (Gibco), L-glutamine substitute (GlutaMAX™; Gibco) and factor B27 (Gibco). […]
(§2) After fixation, cells were permeabilized with 0.2% Triton-X-100 for 15 min, washed three times with PBS and then incubated with blocking solution (1% BSA, 22.52 mg/mL glycine, 0.1% Tween-20 in PBS or 0.4% saponin, 1% BSA, and 5% goat or donkey serum in PBS) for 1 h. […] Following another three washes with PBS, nuclei were counterstained with DAPI (ThermoFisher) and then coverslips were mounted on slides using Dako fluorescence mounting medium (Agilent) and sealed using clear nail varnish.
(§3) Confocal images of primary cortical neurons, iPSC-derived dopaminergic neurons, and LAMP1 staining within the SN were processed using Imaris software (Oxford instruments). […] Mean pixel intensity per GFP^+ cell (for experiments using GFP-tagged peptides) or RFP^+ cell (for experiments using RFP-tagged peptides) was calculated for a-syn or LAMP1 signal using the software’s surfaces module. […]

A53T a-syn = assay: Human a-syn immunoblot of cortical neuron lysates; assay type: cell-based; settings: neuronal lysates
Procedure: Pregnant rats (E17) of the Sprague-Dawley strain were purchased from Envigo. Embryos were surgically removed from the mothers and cortices dissected in Hanks Balanced salt solution (Gibco). The meninges were removed, and cells were dissociated using a papain dissociation system (Worthington) before being resuspended in Neurobasal medium A supplemented with antibiotic-antimycotic solution (Gibco), L-glutamine substitute (GlutaMAX™; Gibco) and factor B27 (Gibco). Cells were plated on poly-D-lysine coated glass coverslips at a density of 5 × 10^5 cells/well, or on poly-D-lysine coated six-well cell culture plates at a density of 2 × 10^6 cells/well, and incubated at 37 °C in 5% CO2 with half media changes every 3 days. Cells were transduced with A53T a-syn or EV AAVs at 2 days post-isolation at a MOI of 3000. After 3 days, media containing AAV vectors were removed. […] Cells were fixed with 4% paraformaldehyde (PFA) for immunofluorescence staining or lysed for immunoblotting at 8 days post-isolation.
Infected neurons were scraped from 6-well dishes and lysed with RIPA buffer containing protease inhibitor cocktail (Roche). The Triton-X-100 soluble fraction was then separated from the insoluble pellet by centrifugation. Protein concentration was quantified using the DC protein assay (BioRad). […]

cathepsin B = assay: Cathepsin B fluorescence in rat cortical neurons; assay type: cell-based; settings: A53T a-syn
Source text: as §1, §2, §3

DEEIERQLKALG [PDpep1.3]
Striatal dopamine, DOPAC and HVA (A53T a-syn or EV rats): restored compared with the Scramble1.3 condition
Effect on cathepsin D (cathepsin D): reduced to control levels
Effect on total A53T a-syn protein (A53T a-syn): corresponding reduction in total A53T a-syn protein levels
Effect on cathepsin B (cathepsin B): reduced to control levels
